Results published in patent publication US11739073B2, “Aryl-n-aryl derivatives for treating a RNA virus infection” (ABIVAX, priority 2018, dated 2023).

Experiments:
[1] = test system: Chikungunya Virus (CHIKV); experiment: Inhibition of Chikungunya virus (CHIKV) production in infected HEK293T cell line (GFP-modified virus, fluorescence); assay type: cell-based, CHIKV strain of La Réunion outbreak (LR2006-OPY1); conditions: HEK-293T, infected HEK293T cells; for inhibition at 1 µM: compounds at 1 μM, MOI 0.1, 22 h, values above 100 lowered to 100, read-out: % CHIKV Inhibition Mean (n = 2); for IC50: read-out: IC50 (CHIKV, second round of experiments)
Protocol: The ability of the compounds to inhibit viral replication was assessed with an experiment in which infected cells were treated by compounds of formula (I) at 1 μM. As a positive control for inhibition of Chikungunya, Ribavirin was used. Toxicity of the compounds was assessed in parallel.
Human embryonic kidney cells 293T (HEK293T, CRL-11268) were maintained in Dulbecco's modified Eagle's Medium (DMEM, 31966-021, Thermo Fisher Scientific) supplemented with 10% of fetal bovine serum (FBS), penicillin and streptomycin. After removal of the medium, cells were washed with Ca^2+ and Mg^2+-free salt solution to remove all traces of serum. After aspiration of wash solution, cells were dissociated with 0.25% Trypsin-EDTA solution and incubated 30 s at least in 37° C. incubator. Concentration of cell suspension was determined by an automatic cell counter (EVE, NanoEntek) and, if needed, adjusted to 0.33×10^6 cells/mL with DMEM medium supplemented with 10% FBS.
100 μL of the cell suspension were dispatched in a ViewPlate-96 Black (6005182, PerkinElmer) and in a transparent 96-well cell culture plate (655180, Greiner bio-one). After an incubation for 24 h at 37° C. under 5% of CO2, compounds were added at the proper concentration.
An intermediate dilution was prepared with DMSO (D8418, Sigma) at 2 mM in a 96-well V-bottom microplate from the stock solution:
Mix 1 μL of the 50 mM stock library in 25 μL of DMSO.
Mix 2 μL of the 25 mM stock library in 25 μL of DMSO.
An intermediate dilution was prepared with DMSO (D8418, Sigma) at 25 mM in a 96-well V-bottom microplate from the stock solution:
Mix 2 μL of the 50 mM stock library in 2 μL of DMSO.
Perform serial dilution in 2 μL of DMSO 13 times to reach 0.0015 mM. Proceed as follows in table III:
For both screen and determination of IC50, 1 μL of each solution was added in a 1 mL Masterblock 96 wells (Greiner bio-one, 780261) containing 1 mL of DMEM medium. As a positive control, 5 μL of a 80 mM Ribavirin solution (R9644, Sigma) is added to 1 mL of DMEM. On the other hand, DMSO is used as a negative control.
[…]. Vector Borne Zoonotic Dis. 2006; 6(4)). This modified virus was used to infect cells at MOI 0.1. […]. Medium was removed after 22 h at 37° C. under 5% of CO2 and cells were washed as described above. 60 μL of RIPA buffer (50 mM Tris-HCl pH8, 100 mM NaCl, 1 mM MgCl2, 1% Triton X-100) was added to cells and incubated for at least 20 min before reading fluorescence signal. Pierce 660 nm Protein Assay Reagent (22660, Thermo scientific) was used to normalize fluorescence signal by protein quantity.
CellTiter 96® AQueous One Solution Cell Proliferation Assay (MTS) (G3581, Promega) was used to check the toxicity of the compounds. We added 20 μL of MTS solution and read absorbance at 492 nm one hour later.
Results • A first round of experiments has been performed wherein the results are expressed as inhibition percentage, which is calculated as follows, through the following steps:
1. Fluorescence intensity (FI)/Absorbance 660 nm (A660)=A
This ratio allows considering the infection (GFP virus) to the protein amount.
2. A′=A—background noise of non-infected plate,
3. B=Fluorescence intensity (FI)/Absorbance 660 nm (A660) of infected but non treated plates,
4. C=A′/B, which is then converted as the percentage of infection after treatment, compared to non-treated sample, and subsequently as the […]. For instance, a value of 100 in Table IV here below means that, after treatment, the signal attributed to GFP fluorescence is abolished, which is correlated to the absence of infection.
This value corresponds to the inhibition's percentage.
The following Table IV encompasses said C′ value for some compounds, as calculated above with a mean of 2 experiments, and corresponding standard deviation.
Some values were originally above 100. In these cases, the value has been lowered to 100. This means that some molecules also have an impact on the viability of the cells. […]

DENV-2 = DENV-2 inhibition in A549 cells using Viral ToxGlo assay (cytopathic effect); assay type: cell-based, DENV-2 strain 16681; conditions: Dengue virus, DENV2, A549, 120 h, read-out: % DENV-2 Inhibition Mean (n = 3)
Protocol: Protocol for Screening Antiviral Compounds for DENV-2 Inhibition and Cytotoxicity Using Viral ToxGlo Assay
A549 cells were maintained in Dulbecco's Modified Eagle Medium (DMEM) supplemented with 10% fetal bovine serum, 100 U/ml penicillin and 100 μg/ml streptomycin. For the purposes of the screening assay they were grown to 90% confluency, trypsinized and recovered. The trypsin was neutralised with cell culture media and cells were centrifuged at 150×g for 5 minutes before discarding the supernatant and resuspending cell pellet in assay media (DMEM supplemented with 2% fetal bovine serum and 100 U/ml penicillin and 100 μg/ml streptomycin). The cells were seeded into 96-well white clear-bottomed cell culture plates at a density of 1.0×10^4 cells/well in 50 μl. For the media/background control column assay media only was added. Cell plates were placed in a humid chamber and incubated overnight at 37° C./5% CO2. After overnight incubation cells were checked for confluency and healthy appearance.
Test compounds were prepared at a final concentration of 10 μM in a maximum DMSO concentration of 1% (final assay concentration maximal 0.1% DMSO) and added to the cell plates in volumes of 10 μl. For cell control and virus control wells the test article solvent only was added. As a positive inhibition control, 7-Deaza-2′-C-methyladenosine was added at 100 μM in 3 wells. Virus (DENV-2 strain 16681) or assay media for cytotoxicity test wells and media/cell control wells was added immediately after test articles at an MOI of 0.5, 40 for 96 well plates respectively. Virus suspension was prepared by thawing DENV-2 frozen stocks and diluting to the required concentration of plaque forming units in assay media.
Cell plates were further incubated inside a humid chamber for 5 days p.i at 37° C./5% CO2. After the incubation period cells were observed under the microscope to check for characteristic cytopathic effect in virus control wells and healthy cells in the cell control wells. After plates were adjusted to room temperature 20 μl Viral ToxGlo (Promega) was added to each well of the 96-well cell plates. Plates were incubated at room temperature for 5 minutes before measuring the luminescence on a spectrophotometer (Envision, PerkinElmer).
DENV-2 inhibition was calculated as percentage of cytopathic effect inhibition relative to the virus control and cytotoxicity as percentage of cell survival relative to cell control wells.

RSV = RSV inhibition in HEp-2 cells using Viral ToxGlo assay (cytopathic effect); assay type: cell-based, RSV A2; conditions: human respiratory syncytial virus, HEp-2, 72 h
Protocol: Protocol for Screening Antiviral Compounds for RSV Inhibition and Cytotoxicity Using Viral ToxGlo Assay
HEp-2 cells were maintained in Eagle's minimum essential medium (EMEM) with Earle's BSS adjusted to contain 2 mM L-glutamine, 10% fetal bovine serum, 100 U/ml penicillin and 100 μg/ml streptomycin. For the purposes of the screening assay they were grown to 90% confluency, trypsinized and recovered. The trypsin was neutralised with cell culture media and cells were centrifuged at 150×g for 5 minutes before discarding the supernatant and resuspending cell pellet in assay media (EMEM with Earle's BSS adjusted to contain 2 mM L-glutamine, 2% fetal bovine serum and 100 U/ml penicillin and 100 μg/ml streptomycin). The cells were seeded into white clear-bottomed cell culture plates at a density of 1.5×10^4 cells/well in 50 μl and 4×10^3 cells/well in 25 μl for 96 well plates and 384 well plates respectively. For the media/background control column assay media only was added. Cell plates were placed in a humid chamber and incubated overnight at 37° C./5% CO2. After overnight incubation cells were checked for confluency and healthy appearance.
Test articles were made up at 10× test concentration in a maximum DMSO concentration of 10% (final assay concentration maximal 1% DMSO) and added to the cell plates in volumes of 10 μl for 96 well plates and 5 μl for 384 well plates. For cell control and virus control wells the test article solvent only was added. Virus or assay media for cytotoxicity test wells and media/cell control wells was added immediately after test articles at an MOI of 0.5, 40 or 20 μl for 96 and 384 well plates respectively. Virus suspension was prepared by thawing RSV A2 frozen stocks and diluting to the required concentration of plaque forming units in assay media on ice.
Cell plates were further incubated inside a humid chamber for 72 h p.i at 37° C./5% CO2. After the incubation period cells were observed under the microscope to check for characteristic cytopathic effect in virus control wells and healthy cells in the cell control wells. After plates were adjusted to room temperature 20/40 μl Viral ToxGlo (Promega) was added to each well of the 384/96 well cell plates. Plates were incubated at room temperature, protected from light on a plate rocker for 20 minutes before measuring the luminescence on a spectrophotometer (Biotek Synergy HTX).
RSV inhibition was calculated as percentage of cytopathic effect inhibition relative to the virus control and cytotoxicity as percentage of cell survival relative to cell control wells. This allowed EC50 values to be calculated for each test article where a virus inhibition or cytotoxic dose response was identified.

For O=C(NCCC1CCCC1)c1cccc(Nc2ccc(/C=C/c3ccccn3)cc2)c1 [Compound 6, (E)-N-(2-cyclopentylethyl)-3-((4-(2-(pyridin-2-yl)vinyl)phenyl)amino)benzamide], the inhibition at 1 µM [1] was 98% and the IC50 [1] was 200 to 500 nM.
O=C(NCCC1CCCC1)c1cccc(Nc2ccc(NC(=O)c3ccccn3)cc2)c1 [Compound 35, N-(4-((3-((2-cyclopentylethyl)carbamoyl)phenyl)amino)phenyl)picolinamide] gave an inhibition at 1 µM [1] of 100%, an IC50 [1] of 200 to 500 nM and an inhibition at 10 µM (DENV-2) of 66%.
Cc1cc(/C=C/c2ccccn2)ccc1Nc1cccc(C(=O)NCCC(C)C)c1 [Compound 13, (E)-N-isopentyl-3-((2-methyl-4-(2-(pyridin-2-yl)vinyl)phenyl)amino)benzamide] showed an IC50 [1] of 1 to 200 nM, an EC50 (RSV) of 370 to 2500 nM and an inhibition at 10 µM (DENV-2) of 86%.
O=C(NCCC1CCCCC1)c1cccc(Nc2ccc(/C=C/c3ccccn3)cc2)c1 [Compound 4, (E)-N-(2-cyclohexylethyl)-3-((4-(2-(pyridin-2-yl)vinyl)phenyl)amino)benzamide] gave an inhibition at 1 µM [1] of 99%.
Work on O=C(NCCC1CCC1)c1cccc(Nc2ccc(/C=C/c3ccccn3)cc2)c1 [Compound 9, (E)-N-(2-cyclobutylethyl)-3-((4-(2-(pyridin-2-yl)vinyl)phenyl)amino)benzamide] yielded an inhibition at 1 µM [1] of 98%.
With CC(C)CCNC(=O)c1ccc(Nc2ccc(/C=C/c3ccccn3)cc2)cc1 [Compound 2, (E)-N-isopentyl-4-((4-(2-(pyridin-2-yl)vinyl)phenyl)amino)benzamide] the inhibition at 1 µM [1] was 74%.
CC(C)CCNC(=O)c1cccc(Nc2ccc(NC(=O)c3ccccn3)cc2)c1 [Compound 32, N-(4-((3-(isopentylcarbamoyl)phenyl)amino)phenyl)picolinamide] gave an inhibition at 1 µM [1] of 99% and an IC50 [1] of 200 to 500 nM.
Cc1cc(/C=C/c2ccccn2)ccc1Nc1cccc(C(=O)NCCC2CCCC2)c1 [Compound 12, (E)-N-(2-cyclopentylethyl)-3-((2-methyl-4-(2-(pyridin-2-yl)vinyl)phenyl)amino)benzamide] gave an IC50 [1] of 1 to 200 nM, an EC50 (RSV) of 370 to 2500 nM and an inhibition at 10 µM (DENV-2) of 96%.
In the case of O=C(NCCC1CCCC1)c1cccc(Nc2ccc(C(=O)Nc3ccccn3)cc2)c1 [Compound 15, N-(2-cyclopentylethyl)-3-((4-(pyridin-2-ylcarbamoyl)phenyl)amino)benzamide], the inhibition at 1 µM [1] is reported as 98%, the IC50 [1] is reported as 200 to 500 nM and the inhibition at 10 µM (DENV-2) is reported as 107%.
For O=C(NCCC1CCCCC1)c1cccc(Nc2ccc(C(=O)Nc3ccccn3)cc2)c1 [Compound 16, N-(2-cyclohexylethyl)-3-((4-(pyridin-2-ylcarbamoyl)phenyl)amino)benzamide], the inhibition at 1 µM [1] was 100%, the IC50 [1] was 200 to 500 nM and the EC50 (RSV) was 1170 nM.
CC(C)CCNC(=O)c1cccc(Nc2ccc(C(=O)Nc3ccccn3)cc2)c1 [Compound 14, N-isopentyl-3-((4-(pyridin-2-ylcarbamoyl)phenyl)amino)benzamide] showed an inhibition at 1 µM [1] of 93% and an IC50 [1] of 200 to 500 nM.
Compound CC(C)CCNC(=O)c1cccc(Nc2ccc(/C=C/c3ccccn3)cc2)c1 [Compound 1, (E)-N-isopentyl-3-((4-(2-(pyridin-2-yl)vinyl)phenyl)amino)benzamide] has an inhibition at 1 µM [1] of 98%.
O=C(Nc1ccccc1)c1ccc(Nc2cccc(OCCCC3CCCCC3)c2)c(C2CC2)c1 [Compound 115, 4-{[3-(3-cyclohexylpropoxy)phenyl]amino}-3-cyclopropyl-N-phenylbenzamide] was tested, and the EC50 (RSV) was 229 nM.
